tested on: HCT116 MTAP-deleted cell lines; experiment: Cell viability assay (CellTiter-Glo, 7 days), HCT116 MTAP-deleted; type: cell-based; conditions: Homo sapiens, HCT-116; cell viability assay, HCT116 MTAP-deleted; class symbols; read-out: CC50
Procedure, shortened: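 CC50 values come from 7-day CellTiter-Glo viability measurements on cells exposed to a dose range of PRMT5 inhibitors dispensed from DMSO stocks.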

Cc1ncc2c(N)nc3cnc(C(=O)N4C[C@@H](F)C[C@@H]5Oc6cc(OC(F)(F)F)ccc6[C@@H]54)cc3n12 [Fg-45, (4-amino-1-methylimidazo[1,5-a]pyrido[3,4-e]pyrazin-8-yl)((3S,4aS,9bS)-3-fluoro-7-(trifluoromethoxy)-3,4,4a,9b-tetrahydrobenzofuro[3,2-b]pyridin-1(2H)-yl)methanone] and Cc1ncn2c1c(N)nc1cnc(C(=O)N3CCC[C@@H]4Oc5cc(-c6cnn(C(F)(F)F)c6)ccc5[C@@H]43)cc12 [Ff-683, (4-amino-3-methylimidazo[1,5-a]pyrido[3,4-e]pyrazin-8-yl)((4aS,9bS)-7-(1-(trifluoromethyl)-1H-pyrazol-4-yl)-3,4,4a,9b-tetrahydrobenzofuro[3,2-b]pyridin-1(2H)-yl)methanone] cannot be ordered by CC50: < 100 nM for the first, < 100 nM for the second.

CN(C(=O)c1cc2c(cc1F)nc(N)c1cncn12)[C@@H]1COc2cc([C@@H]3C[C@H]3C#N)c(F)cc21 [Ff-438, Trans-4-amino-N-[(3S)-6-(2-cyanocyclopropyl)-5-fluoro-2,3-dihydrobenzofuran-3-yl]-7-fluoro-N-methyl-imidazo[1,5-a]quinoxaline-8-carboxamide] and CN(C(=O)c1cc2c(cc1F)nc(N)c1cncn12)C1COc2ccc(C(F)(F)F)cc21 (stereo not drawn) [Ff-458, 4-amino-7-fluoro-N-methyl-N-(5-(trifluoromethyl)-2,3-dihydrobenzofuran-3-yl)imidazo[1,5-a]quinoxaline-8-carboxamide] cannot be ordered by CC50: < 100 nM for the first, < 100 nM for the second.

Compared with Cc1ncn2c1c(N)nc1cc(F)c(C(=O)N(C)[C@@H]3COc4cc(C(C)(F)F)ccc43)cc12 [Ff-382, (S)-4-amino-N-(6-(1,1-difluoroethyl)-2,3-dihydrobenzofuran-3-yl)-7-fluoro-N,3-dimethylimidazo[1,5-a]quinoxaline-8-carboxamide], CN(C(=O)c1cc2c(cc1F)nc(N)c1cnc(Br)n12)[C@@H]1COc2cc(C(F)(F)F)ccc21 (single isomer, unassigned) [Ff-493] is higher in CC50: < 100 nM for the first, 100 to 1000 nM for the second.

Nc1nc2cc(F)c(C(=O)N3CCC4(CC4)[C@@H]4Oc5cc(C(F)(F)F)ccc5[C@@H]43)cc2n2cncc12 [Ff-676, (4-amino-7-fluoroimidazo[1,5-a]quinoxalin-8-yl)((4aS,9bS)-7-(trifluoromethyl)-2,3,4a,9b-tetrahydro-1H-spiro[benzofuro[3,2-b]pyridine-4,1′-cyclopropan]-1-yl)methanone] and Nc1nc2cc(F)c(C(=O)N3CCC[C@@H]4Oc5cc(F)ccc5[C@@H]43)cc2n2cncc12 [Fg-25, (4-amino-7-fluoroimidazo[1,5-a]quinoxalin-8-yl)((4aS,9bS)-7-fluoro-3,4,4a,9b-tetrahydrobenzofuro[3,2-b]pyridin-1(2H)-yl)methanone] cannot be ordered by CC50: < 100 nM for the first, < 100 nM for the second.

First: Cc1ncn2c1c(N)nc1cnc(C(=O)N(C)C3CCc4cc(C(F)(F)F)ccc43)cc12 (stereo not drawn) [Ff-435, 7-amino-N,5-dimethyl-N-[5-(trifluoromethyl)indan-1-yl]-2,4,8,11-tetrazatricyclo[7.4.0.02,6]trideca-1(13),3,5,7,9,11-hexaene-12-carboxamide]
Second: Cc1ncn2c1c(N)nc1cc(Cl)c(C(=O)N3CCC[C@@H]4Oc5nc(C(F)(F)F)ccc5[C@@H]43)cc12 (racemic) [Fg-29, Rac-(4-amino-7-chloro-3-methylimidazo[1,5-a]quinoxalin-8-yl)((4aS,9bS)-7-(trifluoromethyl)-3,4,4a,9b-tetrahydrofuro[2,3-b:4,5-b′]dipyridin-1(2H)-yl)methanone]
The CC50 of the first is higher: 100 to 1000 nM for the first, < 100 nM for the second.

COC[C@H](c1ccc(C(F)(F)F)cc1)N(C)C(=O)c1cc2c(cc1F)nc(N)c1cncn12 [Ff-431, 4-amino-7-fluoro-N-[(1S)-2-methoxy-1-[4-(trifluoromethyl)phenyl]ethyl]-N-methyl-imidazo[1,5-a]quinoxaline-8-carboxamide] and C[C@@H](c1ccc(C(F)(F)F)cc1F)N(C)C(=O)c1cc2c(cc1F)nc(N)c1cncn12 [Ff-533, (S)-4-amino-7-fluoro-N-(1-(2-fluoro-4-(trifluoromethyl)phenyl)ethyl)-N-methylimidazo[1,5-a]quinoxaline-8-carboxamide] fall in the same range of CC50: 100 to 1000 nM for the first, 100 to 1000 nM for the second.

Nc1nc2ccc(C(=O)N3CCC[C@@H]4Oc5c(ccc(OC(F)(F)F)c5F)[C@@H]43)cc2n2cncc12 [Ff-381, (4-aminoimidazo[1,5-a]quinoxalin-8-yl)((4aS,9bS)-6-fluoro-7-(trifluoromethoxy)-3,4,4a,9b-tetrahydrobenzofuro[3,2-b]pyridin-1(2H)-yl)methanone] and Nc1nc2ccc(C(=O)N3CCC[C@@H]4Oc5cc(OC(F)(F)F)c(F)cc5[C@@H]43)cc2n2cncc12 [Ff-377, (4-aminoimidazo[1,5-a]quinoxalin-8-yl)((4aS,9bS)-8-fluoro-7-(trifluoromethoxy)-3,4,4a,9b-tetrahydrobenzofuro[3,2-b]pyridin-1(2H)-yl)methanone] cannot be ordered by CC50: < 100 nM for the first, < 100 nM for the second.

Cc1nn(C)c(C)c1N(Cc1ccc(C(F)(F)F)cc1F)C(=O)c1cc2c(cc1F)nc(N)c1cncn12 [Ff-417, 4-amino-7-fluoro-N-[[2-fluoro-4-(trifluoromethyl)phenyl]methyl]-N-(1,3,5-trimethylpyrazol-4-yl)imidazo[1,5-a]quinoxaline-8-carboxamide] and C[C@H]1CN(C(=O)c2cc3c(cc2Cl)nc(N)c2cncn23)[C@H]2c3ccc(C(F)(F)F)cc3C[C@H]2O1 [Ff-406, (4-amino-7-chloroimidazo[1,5-a]quinoxalin-8-yl)((2S,4aS,9aR)-2-methyl-7-(trifluoromethyl)-2,3,9,9a-tetrahydroindeno[2,1-b][1,4]oxazin-4(4aH)-yl)methanone] cannot be ordered by CC50: < 100 nM for the first, < 100 nM for the second.

C[C@H]1CN(C(=O)c2cc3c(cc2F)nc(N)c2cnc(Br)n23)[C@H]2c3ccc(C(F)(F)F)cc3C[C@H]2O1 (single isomer, unassigned) [Ff-496] and CN(C(=O)c1ccc2nc(N)c3cncn3c2c1)[C@@H]1COc2cc(F)ccc21 [Ff-569, (S)-4-amino-N-(6-fluoro-2,3-dihydrobenzofuran-3-yl)-N-methylimidazo[1,5-a]quinoxaline-8-carboxamide] fall in the same range of CC50: 100 to 1000 nM for the first, 100 to 1000 nM for the second.

same assay, conditions: Homo sapiens, HCT-116; cell viability, HCT116 MTAP-deleted; class symbols; read-out: CC50

First: Nc1nc2ccc(C(=O)N(Cc3ccc(-n4ccnc4)cc3Cl)C34CC(C3)C4)cc2n2cncc12 [Ff-63, 4-amino-N-(bicyclo[1.1.1]pentan-1-yl)-N-(2-chloro-4-(1H-imidazol-1-yl)benzyl)imidazo[1,5-a]quinoxaline-8-carboxamide]
Second: Cn1nccc1-c1ccc(CN(C(=O)c2cc3c(cc2F)nc(N)c2cncn23)C23CC(C2)C3)c(F)c1 [Ff-219, 4-amino-N-(bicyclo[1.1.1]pentan-1-yl)-7-fluoro-N-(2-fluoro-4-(1-methyl-1H-pyrazol-5-yl)benzyl)imidazo[1,5-a]quinoxaline-8-carboxamide]
The CC50 of the first is higher: 100 to 1000 nM for the first, < 100 nM for the second.

CN(C(=O)c1cc2c(cc1F)nc(N)c1cncn12)[C@@H]1COc2cc(-c3ccc(C(F)(F)F)cn3)ccc21 [Ff-238, (S)-4-amino-7-fluoro-N-methyl-N-(6-(5-(trifluoromethyl)pyridin-2-yl)-2,3-dihydrobenzofuran-3-yl)imidazo[1,5-a]quinoxaline-8-carboxamide] and CN(C(=O)c1cc2c(cc1F)nc(N)c1cncn12)[C@@H]1COc2cc(-c3cnn(C(F)(F)F)c3)ccc21 [Ff-95, (S)-4-amino-7-fluoro-N-methyl-N-(6-(1-(trifluoromethyl)-1H-pyrazol-4-yl)-2,3-dihydrobenzofuran-3-yl)imidazo[1,5-a]quinoxaline-8-carboxamide] cannot be ordered by CC50: < 100 nM for the first, < 100 nM for the second.

Compared with C[C@H]1OC[C@@H](N(C)C(=O)c2cc3c(cc2F)nc(N)c2cncn23)c2ccc(C(F)(F)F)cc21 (racemic) [Ff-283, Rac-4-amino-7-fluoro-N-methyl-N-((1R,4S)-1-methyl-7-(trifluoromethyl)isochroman-4-yl)imidazo[1,5-a]quinoxaline-8-carboxamide], CN(C(=O)c1cc2c(cc1F)nc(N)c1cncn12)[C@H]1c2ccc(Br)cc2[C@H]2C[C@H]21 [Ff-313, 4-amino-N-((1aS,6R,6aR)-3-bromo-1,1a,6,6a-tetrahydrocyclopropa[a]inden-6-yl)-7-fluoro-N-methylimidazo[1,5-a]quinoxaline-8-carboxamide] is higher in CC50: < 100 nM for the first, 100 to 1000 nM for the second.

First: CN(C(=O)c1cc2c(cc1F)nc(N)c1cncn12)[C@@H]1COCc2cc(-c3cnn(C(F)F)c3)ccc21 [Ff-292, (S)-4-amino-7-fluoro-N-methyl-N-(7-(1-(difluoromethyl)-1H-pyrazol-4-yl)isochroman-4-yl)imidazo[1,5-a]quinoxaline-8-carboxamide]
Second: Nc1nc2cc(F)c(C(=O)N(Cc3ccc(F)cc3Cl)C3CCC3)cc2n2cncc12 [Ff-73, 4-amino-N-(2-chloro-4-fluorobenzyl)-N-cyclobutyl-7-fluoroimidazo[1,5-a]quinoxaline-8-carboxamide]
The CC50 of the first is lower: < 100 nM for the first, 100 to 1000 nM for the second.

C[C@H]1CN(C(=O)c2ccc3nc(N)c4cncn4c3c2)[C@H]2c3cc(F)c(C(F)(F)F)cc3C[C@H]2O1 [Ff-246, (4-aminoimidazo[1,5-a]quinoxalin-8-yl)((2S,4aS,9aR)-6-fluoro-2-methyl-7-(trifluoromethyl)-2,3,9,9a-tetrahydroindeno[2,1-b][1,4]oxazin-4(4aH)-yl)methanone] and C[C@@H]1CN(C(=O)c2cc3c(cc2F)nc(N)c2cncn23)[C@H]2c3ccc(OC(F)(F)F)c(F)c3C[C@H]2O1 (single isomer, unassigned) [Ff-191] cannot be ordered by CC50: < 100 nM for the first, < 100 nM for the second.

Compared with Nc1nc2cc(F)c(C(=O)N3CCC[C@@H]4Oc5c(ccc(F)c5F)[C@@H]43)cc2n2cncc12 (racemic) [Ff-102, Rac-(4-amino-7-fluoroimidazo[1,5-a]quinoxalin-8-yl)((4aS,9bS)-6,7-difluoro-3,4,4a,9b-tetrahydrobenzofuro[3,2-b]pyridin-1(2H)-yl)methanone], Cc1ncn2c1c(N)nc1cc(F)c(C(=O)N(C)C3CCc4nc(C(F)(F)F)ccc43)cc12 (stereo not drawn) [Ff-68, 4-amino-7-fluoro-N,3-dimethyl-N-(2-(trifluoromethyl)-6,7-dihydro-5H-cyclopenta[b]pyridin-5-yl)imidazo[1,5-a]quinoxaline-8-carboxamide] is lower in CC50: 100 to 1000 nM for the first, < 100 nM for the second.

Source: patent US12448388B2, “PRMT5 inhibitors and uses thereof” (Gilead Sciences, Inc., priority 2023, dated 2025)
